From US5597899A, “Tumor necrosis factor muteins” (Hoffmann-La Roche Inc., priority 1993, dated 1997)

Key:
human TNFR-p55 = assay: Solid phase radioligand competition binding assay, E. coli lysates, TNFR-p55; conditions: for Dilution of E. coli Lysate for 50% Inhibition of 125I-TNFα Binding (ID50) TNFR-p55: 10-fold serial dilutions 10^-2 to 10^-7, < = inhibition but below 50% at 1:100, << = no measurable inhibition at 1:100; for ID50 TNFR-p55 / ID50 TNFR-p75: ratio = 1 no receptor selectivity, > 1 TNFR-p55 selectivity, < 1 TNFR-p75 selectivity
Experimental: (§1) After 20 min incubation at room temperature 50 μl of 1M MgCl2, 20 μl of 5 mg/ml DNaseI, 50 μl of 5M NaCl and 50 μl of 10% NP-40 were added and the mixture was further incubated at room temperature for 15 min. 0.5 ml of the lysate clarified by centrifugation at 13'000 rpm for 5 min was subjected to ammonium sulfate precipitation (25%-70% cut). The 70% ammonium sulfat pellet was dissolved in 0.2 ml PBS and analyzed by sodium dodecyl sulfate polyacrylamide gel electrophoresis (SDS-PAGE) to confirm presence and approximate amount of the recombinant proteins.
TNFα was labelled by the Iodogen method (Pierce Chemical Company) to a specific activity of about 10-30 μCi/μg. The volume was 100 μl/well and each lysate dilution was assayed in duplicate or triplicate. After three hours at room temperature the wells were thoroughly washed with PBS and counted in a γ-counter. The results are given in Table 2 for lysates comprising the muteins indicated therein.

human TNFR-p75 = assay: Solid phase radioligand competition binding assay, E. coli lysates, TNFR-p75; conditions: 10-fold serial dilutions 10^-2 to 10^-7, < = inhibition but below 50% at 1:100, << = no measurable inhibition at 1:100
Experimental: as §1, with “10 ml suspensions of E. coli cells transformed and induced as described in Examples I and II were centrifuged at 4'000 rpm for 10 min and resuspended in 0.9 ml of lysis buffer (10 mM Tris-HCl pH 8.0, 5 mM EDTA, 2 mM PMSF, 10 mM benzamidine, 200 units/ml aprotinine and 0.1 mg/ml lysozyme). After” for “After”
96 well microtiter plates were coated with recombinant human […] TNFR-p75-hγ3 and TNFR-p55-hγ3 fusion proteins (extracellular portion of the receptor fused to the Fc part of human IgG3) at a concentration of 0.3 μg/ml and 0.1 μg/ml, respectively, in phosphate buffered saline (PBS, 100 μl/well, overnight at 4° C.) [Loetscher, H. et al. J. Biol. Chem. 266, 18324-18329 (1991); Lesslauer, W. et al. Eur. J. Immunol. 21, 2883-2886 (1991)]. After blocking with blocking buffer (50 mM Tris pH 7.4, 140 mM NaCl, 5 mM EDTA, 0.02% NAN3, 1% defatted milk powder) the microtiter plate was washed with PBS and incubated in blocking buffer containing 0.1% defatted milk powder with 10 ng/ml human wild-type ^125 I-TNFα and various dilutions of E. coli lysates ranging from 10^-2 to 10^-7 (10-fold serial dilutions). TNFα was labelled by the Iodogen method (Pierce Chemical Company) to a specific activity of about 10-30 μCi/μg. The volume was 100 μl/well and each lysate dilution was assayed in duplicate or triplicate. After three hours at room temperature the wells were thoroughly washed with PBS and counted in a γ-counter. The results are given in Table 2 for lysates comprising the muteins indicated therein.

Substance | Dilution of E. coli Lysate for 50% Inhibition of 125I-TNFα Binding (ID50) TNFR-p55 (human TNFR-p55) | ID50 TNFR-p55 / ID50 TNFR-p75 (human TNFR-p55) | Dilution of E. coli Lysate for 50% Inhibition of 125I-TNFα Binding (ID50) TNFR-p75 (human TNFR-p75)
N34D: human TNFα mutein N34D | 250 fold | > 2.5 | < 100 fold
N34E: human TNFα mutein N34E | 330 fold | > 3.3 | < 100 fold
N34F: human TNFα mutein N34F | 100 fold | > 1 | < 100 fold
N34G: human TNFα mutein N34G | 330 fold | > 3.3 | < 100 fold
N34H: human TNFα mutein N34H | 670 fold | > 6.7 | < 100 fold
N34I: human TNFα mutein N34I | 200 fold | > 2 | < 100 fold
N34M: human TNFα mutein N34M | < 100 fold | > 1 | < 100 fold
N34P: human TNFα mutein N34P | < 100 fold | > 1 | < 100 fold
N34Q: human TNFα mutein N34Q | < 100 fold | > 1 | < 100 fold
N34R: human TNFα mutein N34R | < 100 fold | > 1 | < 100 fold
N34T: human TNFα mutein N34T | 1,000 fold | > 10 | < 100 fold
N34V: human TNFα mutein N34V | < 100 fold | > 1 | < 100 fold
N34Y: human TNFα mutein N34Y, listed twice (codons TAT and TAC) | < 100 fold | > 1 | < 100 fold
N92R: human TNFα mutein N92R | 5,000 fold | 4 | 1,250 fold
Q21S: human TNFα mutein Q21S | 2,500 fold | 1 | 2,500 fold
Q67K: human TNFα mutein Q67K | 25,000 fold | 0.5 | 50,000 fold
Q67T: human TNFα mutein Q67T | 25,000 fold | 0.75 | 33,330 fold
Q67Y: human TNFα mutein Q67Y | 20,000 fold | 0.6 | 33,330 fold

Substance | Dilution of E. coli Lysate for 50% Inhibition of 125I-TNFα Binding (ID50) TNFR-p55 (human TNFR-p55) | ID50 TNFR-p55 / ID50 TNFR-p75 (human TNFR-p55) | Dilution of E. coli Lysate for 50% Inhibition of 125I-TNFα Binding (ID50) TNFR-p75 (human TNFR-p75)
R31E-S86T: human TNFα mutein R31E-S86T | 2,000 fold | > 20 | < 100 fold
R31E: human TNFα mutein R31E | 3,470 fold | 19.3 | 180 fold
R31K: human TNFα mutein R31K | 3,330 fold | 1 | 3,330 fold
R31N-R32T: human TNFα mutein R31N-R32T | 3,260 fold | > 32.6 | < 100 fold
R32W-S86T: human TNFα mutein R32W-S86T | 3,330 fold | > 33.3 | < 100 fold
S86D: human TNFα mutein S86D | 6,670 fold | 6.7 | 1,000 fold
S86T: human TNFα mutein S86T | 10,000 fold | > 100 | < 100 fold
S99A: human TNFα mutein S99A | 6,670 fold | 1 | 6,670 fold
S99Y: human TNFα mutein S99Y | < 100 fold | 1 | < 100 fold
S147L: human TNFα mutein S147L | 2,000 fold | 0.6 | 3,330 fold
S147N: human TNFα mutein S147N | 10,000 fold | 1 | 10,000 fold
Y87E: human TNFα mutein Y87E | < 100 fold | > 1 | < 100 fold
Y87F: human TNFα mutein Y87F | 200 fold | > 2 | < 100 fold
Y87G: human TNFα mutein Y87G | < 100 fold | 1 | < 100 fold
Y87K: human TNFα mutein Y87K | < 100 fold | 1 | < 100 fold
Y87L: human TNFα mutein Y87L | < 100 fold | 1 | < 100 fold
Y87Q: human TNFα mutein Y87Q | < 100 fold | 1 | < 100 fold
Y87T-E104G: human TNFα mutein Y87T-E104G | < 100 fold | 1 | < 100 fold
